Results taken from the supplement of paper PMC10331698.
± gives the standard deviation of the averaged measurements.

Tests used:
Assay in all cases: level (log10 ratio to DMSO vehicle control); higher = higher biomarker level / cell amount than vehicle control
[1] = compound: NS(=O)(=O)C(F)(F)C(F)(F)C(F)(F)C(F)(F)C(F)(F)C(F)(F)F [Perfluorohexanesulfonamide]; conditions: in DMSO
Procedure: (§1)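 BioMAP Diversity Plus panel of 12 human primary cell co-culture systems (3C, 4H, LPS, SAg, BT, BF4T, BE3C, CASM3C, HDF3CGF, KF3CT, MyoF, Mphg). Compounds were added 1 h before stimulation and left for 24 h (MyoF 48 h; BT 72 h for soluble read-outs or 6 d for IgG). Biomarkers were read by ELISA, cytotoxicity by SRB, PBMC viability and proliferation by Alamar Blue. Each well value was divided by the mean of 8 DMSO control wells on the same plate and log10 transformed; duplicate blinded samples were tested at 4 concentrations.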

[2] = compound: O=S(=O)(Cl)C(F)(F)C(F)(F)C(F)(F)C(F)(F)C(F)(F)C(F)(F)C(F)(F)C(F)(F)F [Perfluoro-1-octanesulfonyl chloride]; conditions: in DMSO
Procedure: as §1

[3] = compound: FC(F)(F)C(F)(F)C(F)(F)C(F)(F)C(F)(F)C(F)(F)CC1CO1 [3-(Perfluorohexyl)-1,2-epoxypropane]; conditions: in DMSO
Procedure: as §1

[4] = compound: FC(F)(F)C(F)(F)C(F)(F)C(F)(F)C(F)(F)C(F)(F)C(F)(F)I [1-Iodopentadecafluoroheptane]; conditions: in DMSO
Procedure: as §1

[5] = compound: FC(F)(F)C(F)(F)C(F)(F)CC1CO1 [1H,1H-Heptafluorobutyl epoxide]; conditions: in DMSO
Procedure: as §1

[6] = compound: NC(=O)C(F)(F)C(F)(F)C(F)(F)C(F)(F)C(N)=O [Octafluoroadipamide]; conditions: in DMSO
Procedure: as §1

[7] = compound: O=S(=O)(F)C(F)(F)C(F)(F)C(F)(F)C(F)(F)C(F)(F)C(F)(F)C(F)(F)C(F)(F)F [Perfluorooctanesulfonyl fluoride]; conditions: in DMSO
Procedure: as §1

[8] = compound: COC(=O)C(F)(F)C(F)(F)OC(F)(C(F)(F)F)C(F)(F)OC(F)=C(F)F [Methyl perfluoro(3-(1-ethenyloxypropan-2-yloxy)propanoate)]; conditions: in DMSO
Procedure: as §1

[9] = compound: NC(=O)C(F)(F)C(F)(F)C(F)(F)C(F)F; conditions: in DMSO
Procedure: as §1

[10] = compound: O=S(=O)(O)C(F)(F)C(F)(F)C(F)(F)C(F)(F)C(F)(F)C(F)(F)C(F)(F)C(F)(F)C(F)(F)C(F)(F)F [Sodium perfluorodecanesulfonate]; conditions: in DMSO
Procedure: as §1

[11] = compound: O=S(=O)(O)CCC(F)(F)C(F)(F)C(F)(F)C(F)(F)C(F)(F)C(F)(F)F [6:2 Fluorotelomer sulfonic acid]; conditions: in DMSO
Procedure: as §1

[12] = compound: FC(F)(F)C(F)(F)C(F)(F)CI [Heptafluorobutyl iodide]; conditions: in DMSO
Procedure: as §1

[13] = compound: NC(=O)C(F)(F)C(F)(F)C(F)(F)C(F)(F)F [Nonafluoropentanamide]; conditions: in DMSO
Procedure: as §1

[14] = compound: C=C(C)C(=O)OCCC(F)(F)C(F)(F)C(F)(F)C(F)(F)C(F)(F)C(F)(F)F [6:2 Fluorotelomer methacrylate]; conditions: in DMSO
Procedure: as §1

[15] = compound: C=CC(=O)OCC(F)(F)C(F)(F)C(F)(F)COC(=O)C=C [1H,1H,5H,5H-Perfluoro-1,5-pentanediol diacrylate]; conditions: 6700 nM; in DMSO
Procedure: as §1

[16] = compound: O=C(O)C(F)(F)C(F)(F)C(F)(F)C(F)(F)C(F)(F)C(F)(F)C(F)(F)C(F)(F)C(F)(F)C(F)F [11-H-Perfluoroundecanoic acid]; conditions: in DMSO
Procedure: as §1

[17] = compound: FC(F)(F)C(F)(F)CNCC(F)(F)C(F)(F)F [Bis(1H,1H-perfluoropropyl)amine]; conditions: in DMSO
Procedure: as §1

[18] = compound: OCC(F)(F)C(F)(F)C(F)(F)CO [Hexafluoroamylene glycol]; conditions: in DMSO
Procedure: as §1

[19] = compound: O=C(O)C=CC(F)(C(F)(F)F)C(F)(F)F [3-(Perfluoroisopropyl)-2-propenoic acid]; conditions: in DMSO
Procedure: as §1

Which results are given for LPS:CD141/Thrombomodulin?
level (log10) ([1]; 6700 nM): -0.0155 ± 0.0092; level (log10) ([1]; 20000 nM): -0.017 ± 0.017; level (log10) ([1]; 60000 nM): -0.0095 ± 0.028; level (log10) ([2]; 6700 nM): -0.035 ± 0.025; level (log10) ([2]; 20000 nM): -0.028 ± 0.034; level (log10) ([2]; 60000 nM): 0.083 ± 0.014; level (log10) ([3]; 6700 nM): -0.0405 ± 0.0035; level (log10) ([3]; 20000 nM): -0.038 ± 0.0099; level (log10) ([3]; 60000 nM): -0.0545 ± 0.0064; level (log10) ([4]; 6700 nM): 0.0215 ± 0.023; level (log10) ([4]; 20000 nM): -0.024 ± 0.075; level (log10) ([5]; 6700 nM): 0.059 ± 0.0071; level (log10) ([5]; 20000 nM): 0.039 ± 0.079; level (log10) ([5]; 60000 nM): 0.019 ± 0.033; level (log10) ([6]; 6700 nM): -0.029 ± 0.1; level (log10) ([6]; 20000 nM): 0.014 ± 0.076; level (log10) ([6]; 60000 nM): 0.0355 ± 0.056; level (log10) ([7]; 6700 nM): 0.0105 ± 0.025; level (log10) ([7]; 20000 nM): 0.0045 ± 0.0078; level (log10) ([7]; 60000 nM): 0.0055 ± 0.012; level (log10) ([8]; 6700 nM): -0.05 ± 0.0099; level (log10) ([8]; 20000 nM): -0.071 ± 0.027; level (log10) ([9]; 6700 nM): -0.037 ± 0.023; level (log10) ([9]; 20000 nM): -0.0225 ± 0.028; level (log10) ([9]; 60000 nM): -0.02 ± 0.021; level (log10) ([10]; 1500 nM): -0.0315 ± 0.0064; level (log10) ([10]; 4400 nM): 0.0015 ± 0.046; level (log10) ([10]; 13000 nM): -0.021 ± 0.0071; level (log10) ([10]; 40000 nM): 0.071 ± 0.047; level (log10) ([11]; 6700 nM): 0.061 ± 0.03; level (log10) ([11]; 20000 nM): 0.065 ± 0.0057; level (log10) ([11]; 60000 nM): 0.0475 ± 0.021; level (log10) ([12]; 6700 nM): 0.0135 ± 0.14; level (log10) ([12]; 20000 nM): 0.0175 ± 0.14; level (log10) ([12]; 60000 nM): 0.0485 ± 0.1; level (log10) ([13]; 6700 nM): 0.005 ± 0.027; level (log10) ([13]; 20000 nM): 0.018 ± 0.035; level (log10) ([13]; 60000 nM): 0.0435 ± 0.035; level (log10) ([14]; 6700 nM): -0.039 ± 0.025; level (log10) ([14]; 20000 nM): -0.0465 ± 0.04; level (log10) ([14]; 60000 nM): -0.091 ± 0.017; level (log10) [15]: 0.0505 ± 0.054; level (log10) ([16]; 6700 nM): 0.0875 ± 0.057; level (log10) ([16]; 20000 nM): 0.051 ± 0.092; level (log10) ([17]; 6700 nM): 0.046 ± 0.088; level (log10) ([17]; 20000 nM): 0.0005 ± 0.14; level (log10) ([17]; 60000 nM): -0.0095 ± 0.096; level (log10) ([18]; 6700 nM): 0.0715 ± 0.097; level (log10) ([18]; 20000 nM): 0.035 ± 0.023; level (log10) ([18]; 60000 nM): 0.06 ± 0.064; level (log10) ([19]; 6700 nM): -0.024 ± 0.037; level (log10) ([19]; 20000 nM): -0.022 ± 0.0057; level (log10) ([19]; 60000 nM): -0.036 ± 0.02
